Results from patent US7763657B2, “Compounds, isomer thereof, or pharmaceutically acceptable salts thereof as vanilloid receptor antagonist; and pharmaceutical compositions containing the same” (Amorepacific Corporation, priority 2005, dated 2010).

Experiments:
vanilloid receptor = biological target: T1, vanilloid receptor (Rattus norvegicus, UniProt O35433); test: 45Ca influx test (calcium uptake) in primary cultured DRG neurons, antagonism of capsaicin; assay type: cell-based; conditions: neonatal SD rat DRG nerve cells; capsaicin 0.5 μM; 45Ca 10 μCi/ml; 10 mins room temperature; read-out: Antagonist Calcium Uptake Test (IC50)
T1 construct: DRG nerve cells from the primary culture of 2 days were equilibrated; endogenous in cells; host or cells: primary cultured dorsal root ganglion neurons of neonatal SD rats
Experimental: 1) Separation of Spinal Dorsal Root Ganglia (DRG) in Newborn Rats and Primary Culture Thereof
Neonatal (2-3 day old or younger than 2-3 day old) SD rats were put in ice for 5 minutes to anesthetize and disinfected with 70% ethanol. […] The DRG were incubated sequentially at 37° C. for 30 min in 200 U/ml collagenase and 2.5 mg/ml trypsin, separately. The ganglia were washed twice with DME/F12 medium supplemented with 10% horse serum, triturated through a fire-polished Pasteur pipette, filtered through Nitex 80 membrane to obtain single cell suspension and the suspension was washed once more. This was subjected to centrifugation, then resuspended in cell culture medium at certain level of cell density. As the cell culture medium, DME/F12 medium supplemented with 10% horse serum was diluted with identical medium conditioned by C6 glioma cells 2 days on a confluent monolayer (1:1), and NGF (Nerve Growth Factor) was added to adjust 200 ng/ml as final concentration. After the cells were grown 2 days in medium where cytosine arabinoside (Ara-C, 100 μM) was added to kill dividing nonneuronal cells, medium was changed to one without Ara-C. The resuspended cells were plated at a density of 1500-2000 neurons/well onto Terasaki plates previously coated with 10 μg/ml poly-D-ornithine.
2) ^45Ca Influx Experiments
DRG nerve cells from the primary culture of 2 days were equilibrated by washing 4 times with HEPES (10 mM, pH 7.4)-buffered Ca^2+, Mg^2+-free HBSS (H—HBSS). The solution in each well was removed from the individual well. Medium containing the test compound plus capsaicin (final concentration 0.5 μM) and ^45Ca (final concentration 10 μCi/ml) in H—HBSS was added to each well and incubated at room temperature for 10 mins. Terasaki plates were washed five times with H—HBSS and dried at room temperature. To each well, 0.3% SDS (10 μl) was added to elute ^45Ca. After the addition of scintillation cocktail of into each well, the amount of ^45Ca influx into neuron was measured by counting radioactivity.

Male ICR mice = test: Analgesic activity test: mouse writhing test by inducing with phenyl-p-quinone; assay type: in vivo; conditions: ip, 0.5 h, number of writhes vs control, read-out: Analgesic effect (% Inhibition); for inhibition in vivo at 1 mg/kg: Dose 1 mg/kg intraperitoneally 30 min before phenyl-p-quinone
Experimental: 3. Analgesic Activity Test: Mouse Writhing Test by Inducing with phenyl-p-quinone
Male ICR mice (mean body weight 25 g) were maintained in a controlled lighting environment (12 h on/12 h off) for experiment. Animals received an intraperitoneal injection of 0.3 ml of the chemical irritant phenyl-p-quinone (dissolved in saline containing 5% ethanol to be a dose of 4.5 mg/kg) and 6 mins later, the number of abdominal constrictions was counted in the subsequent 6 mins period. Animals (10 animals/group) received 0.2 ml of test compounds solution in vehicle of ethanol/Tween 80/saline (10/10/80) intraperitoneally 30 min before the injection of phenyl-p-quinone. A reduction in the number of writhes responding to the test drug compound relative to the number responding in saline control group was considered to be indicative of an analgesic effect. Analgesic effect was calculated by % inhibition equation (% inhibition=(C−T)/C×100), wherein C and T represent the number of writhes in control and compound-treated group, respectively (Table 3).

T1 sequence (O35433 whole entry): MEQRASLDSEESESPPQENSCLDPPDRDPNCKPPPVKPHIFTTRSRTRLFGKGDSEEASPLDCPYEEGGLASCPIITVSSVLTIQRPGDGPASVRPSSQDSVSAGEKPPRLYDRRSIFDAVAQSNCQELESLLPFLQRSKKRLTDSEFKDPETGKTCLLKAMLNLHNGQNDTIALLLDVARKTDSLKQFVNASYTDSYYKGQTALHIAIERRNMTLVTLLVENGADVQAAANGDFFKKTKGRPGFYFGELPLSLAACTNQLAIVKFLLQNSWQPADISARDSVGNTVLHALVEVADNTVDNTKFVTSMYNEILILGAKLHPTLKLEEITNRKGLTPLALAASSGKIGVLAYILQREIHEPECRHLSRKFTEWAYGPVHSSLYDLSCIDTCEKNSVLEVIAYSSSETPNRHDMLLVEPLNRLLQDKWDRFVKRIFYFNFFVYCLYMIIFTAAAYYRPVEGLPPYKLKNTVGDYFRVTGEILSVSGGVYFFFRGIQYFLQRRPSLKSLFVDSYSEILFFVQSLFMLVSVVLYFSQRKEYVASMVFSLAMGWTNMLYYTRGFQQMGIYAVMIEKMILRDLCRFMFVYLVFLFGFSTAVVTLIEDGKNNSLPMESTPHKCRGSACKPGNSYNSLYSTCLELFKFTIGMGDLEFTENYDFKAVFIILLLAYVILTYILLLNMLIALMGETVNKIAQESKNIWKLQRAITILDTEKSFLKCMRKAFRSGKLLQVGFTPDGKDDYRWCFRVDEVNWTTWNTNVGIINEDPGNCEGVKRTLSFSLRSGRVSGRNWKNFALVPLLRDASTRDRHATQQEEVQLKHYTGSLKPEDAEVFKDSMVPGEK

Row | Compound | IC50 (vanilloid receptor) [nM] | inhibition in vivo at 1 mg/kg (Male ICR mice) [%] | inhibition in vivo at 0.3 mg/kg (Male ICR mice; Dose 0.3 mg/kg intraperitoneally 30 min before phenyl-p-quinone) [%]
1 | C#Cc1cc(CNC(=O)/C=C/c2ccc(C(C)(C)C)cc2)cc(F)c1NS(C)(=O)=O [Example 16, 3-(4-t-butylphenyl)-N-(3-fluoro-5-ethynyl-4-methanesulfonylamino-benzyl)acrylamide] | 47 | 68 | 
2 | C=Cc1cc([C@@H](C)NC(=O)NCc2ccc(C(C)(C)C)cc2)ccc1NS(C)(=O)=O [Example 6, N-(4-{1-(R)-[3-(4-t-butylbenzyl)ureido]ethyl}-2-vinylphenyl)methanesulfonamide] | 82 | 56 | 
3 | C=Cc1cc([C@@H](C)NC(=O)/C=C/c2ccc(C(C)(C)C)cc2)ccc1NS(C)(=O)=O [Example 14, 3-(4-t-butylphenyl)-N-[1-(R)-(4-methanesulfonylamino-3-vinylphenyl)ethyl]acrylamide] | 50 | 58 | 
4 | C=Cc1cc(CNC(=O)/C=C/c2ccc(C(C)(C)C)cc2N2CCN(C)CC2)cc(F)c1NS(C)(=O)=O [Example 25, 3-[4-tert-Butyl-2-(4-methylpiperazin-1-yl)phenyl]-N-(3-fluoro-4-methanesulfonylamino-5-vinylbenzyl)acrylamide] |  | 64 | 
5 | C=Cc1cc(CNC(=O)NCc2ccc(C(C)(C)C)cc2)cc(F)c1NS(C)(=O)=O [Example 2, N-{4-[3-(4-t-butylbenzyl)ureidomethyl]-2-fluoro-6-vinylphenyl}methanesulfonamide] | 98 |  | 57
6 | C=Cc1cc(CNC(=O)CCc2ccc(C(C)(C)C)cc2OC2CCOCC2)cc(F)c1NS(C)(=O)=O [Example 41, 3-[4-tert-Butyl-2-(tetrahydropyran-4-yloxy)phenyl]-N-(3-fluoro-4-methanesulfonylamino-5-vinylbenzyl)propionamide] | 43 | 44 | 
7 | C=Cc1cc(CNC(=O)CCc2ccc(C(C)(C)C)cc2)cc(F)c1NS(C)(=O)=O [Example 46, 3-[4-(tert-butyl)phenyl]-N-[3-fluoro-4-(methanesulfonylamino)-5-vinylbenzyl]propionamide] | 25 | 43 | 
8 | C=Cc1cc(CNC(=O)CCc2ccc(C(C)(C)C)cc2)ccc1NS(C)(=O)=O [Example 45, 3-[4-(tert-butyl)phenyl]-N-[4-(methanesulfonylamino)-3-vinylbenzyl]propionamide] | 63 | 82 | 
9 | C=Cc1cc(CNC(=O)/C=C/c2ccc(C(C)(C)C)cc2)ccc1NS(C)(=O)=O [Example 17, 3-(4-t-butylphenyl)-N-(4-methanesulfonylamino-3-vinylbenzyl)acryl amide] | 58 | 63 | 
10 | C=Cc1cc(CNC(=O)/C=C/c2ccc(C(C)(C)C)cc2)cc(F)c1NS(C)(=O)=O [Example 15, 3-(4-t-butylphenyl)-N-(3-fluoro-4-methanesulfonylamino-5-vinylbenzyl)acrylamide] | 34 | 60 | 
